Activity calls are given as the source filed them.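 Rule for the calls: active = IC50 at or below 10 micromolar; inactive = IC50 above 10 micromolar.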
Each compound was assayed against Steroidogenic factor 1 (Homo sapiens) (UniProt Q13285) (assay: SF-1 inhibitor potency, dose response, cell-based, CHO-K1, Gal4-SF-1 LBD, luciferase luminescence (AID 600)). Settings: CHO-K1 Gal4-SF-1 LBD luciferase reporter.
Steroidogenic factor 1 (Homo sapiens), sequence (Q13285 whole entry, looked up, the tested form may be a part): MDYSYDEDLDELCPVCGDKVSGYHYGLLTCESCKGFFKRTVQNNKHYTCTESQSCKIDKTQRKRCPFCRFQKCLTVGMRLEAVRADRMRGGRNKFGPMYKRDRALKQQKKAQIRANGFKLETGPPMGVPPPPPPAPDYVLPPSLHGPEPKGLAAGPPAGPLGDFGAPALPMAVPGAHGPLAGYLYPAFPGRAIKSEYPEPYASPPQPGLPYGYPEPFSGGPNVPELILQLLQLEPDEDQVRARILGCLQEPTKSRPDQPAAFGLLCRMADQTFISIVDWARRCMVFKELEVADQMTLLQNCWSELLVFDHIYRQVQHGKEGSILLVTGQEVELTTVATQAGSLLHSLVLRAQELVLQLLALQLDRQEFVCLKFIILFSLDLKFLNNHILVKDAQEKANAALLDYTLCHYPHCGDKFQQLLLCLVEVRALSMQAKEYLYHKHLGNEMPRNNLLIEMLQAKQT

Compound | IC50
CSC1=C(C#N)C(c2ccc(Cl)cc2)C2=C(CC(C)(C)CC2=O)N1 (stereo not drawn) | inactive
COC(=O)c1ccc(N2C(=O)CC(N3CCC(n4c(=O)[nH]c5ccccc54)CC3)C2=O)cc1 (stereo not drawn) | > 99 µM (inactive)
N#CC1=C(N)C(C#N)(C#N)[C@H](c2ccncc2)[C@H]2CN(C(=O)OCc3ccccc3)CC=C12 | inactive
O=C(/C=C\Nc1cccc(F)c1)c1ccc2c(c1)OCO2 | 4.65 µM
O=C(/C=C\Nc1ccccn1)c1ccc(Cl)cc1 | 6.09 µM
CCOc1ccccc1-n1c(SCC(=O)Nc2ccc(CC)cc2)nc2n[nH]c(C)c2c1=N | 5.99 µM
COc1cc(C2C(C#N)=C(N)Oc3cc(N(C)C)ccc32)cc2c1OCO2 (stereo not drawn) | > 3.67 µM (inactive)
COc1cc(C2C(C#N)=C(N)Oc3cc(N)ccc32)cc(OC)c1OC (stereo not drawn) | 7.92 µM
CC(=O)CC1OC(=O)C(Br)=C1NCc1ccccc1 (stereo not drawn) | > 11 µM (inactive)
CN(C)c1ccc2c(c1)OC(N)=C(C#N)C2c1cccc(F)c1 (stereo not drawn) | inactive
Cc1ccc(C(=O)/C=C/Nc2ccccn2)cc1 | > 11 µM (inactive)
O=C(/C=C\Nc1ccc2c(c1)OCO2)c1ccccn1 | inactive
O=S(=O)(c1ccc2c(c1)C(=NO)c1cc(S(=O)(=O)N3CCCCC3)ccc1-2)N1CCCCC1 | 1.51 µM
COc1cc(/C=N/O)ccc1OCc1ccc(C(=O)O)cc1 | 1.16 µM
CCN(CC)c1ccc2c(c1)OC(N)=C(C#N)C2c1cccnc1 (stereo not drawn) | > 3.67 µM (inactive)
CN(C)c1ccc(N/C=C/C(=O)c2ccccc2)cc1 | > 11 µM (inactive)
COC(=O)C1=C(CN2CCCc3ccccc32)NC(=O)NC1c1ccc(F)cc1 (stereo not drawn) | 5.34 µM
CCOC(=O)C1=C(Cn2cnc3ccccc32)NC(=O)NC1c1cc(C)ccc1C (stereo not drawn) | inactive

Reference: PubChem BioAssay AID600 (The Scripps Research Institute Molecular Screening Center, 2007)
